In PMC3161034 (BMC Cancer, 2011):
Marks after values point to notes of the source that are not given here.

Test system: patients with solid tumors
Test: Adverse events graded by CTCAE version 3.0, relatedness by investigator
Assay type: in vivo, human
Description: Cohort enrollment could be expanded to ensure that at least 6 evaluable patients were enrolled or in the event of unresolved safety, pharmacokinetic, or other concerns. The overall sample size could be further increased if additional dose cohorts were considered justified based on the results from the dose-escalation portion of the study. For continuous endpoints, the mean, standard error or standard deviation (SD); median; 25th and 75th percentiles; and minimum and maximum were calculated. For discrete data, the frequency and percent distributions were calculated. No formal comparisons between cohorts were performed. The data were analyzed using SAS software version 8.2 (SAS Institute, Cary, NC). […] The safety analysis set included all patients who received at least 1 dose of study therapy.

[1] = motesanib 50 mg QD + gemcitabine + erlotinib 100 mg QD, n = 7
[2] = motesanib 75 mg BID + gemcitabine + erlotinib 100 mg QD, n = 9
[3] = motesanib 100 mg QD + erlotinib 150 mg QD, n = 7
[4] = motesanib 100 mg QD + gemcitabine + erlotinib 100 mg QD, n = 8

CC1(C)CNc2cc(NC(=O)c3cccnc3NCc3ccncc3)ccc21 [motesanib]
Patients with grade ≥ 3 motesanib-related adverse events (all motesanib cohorts): Twenty-three
Grade 5 motesanib-related adverse events (human, in vivo): No grade 5 motesanib-related adverse events occurred
Motesanib-related diarrhea (human, in vivo): 19 n
Motesanib-related fatigue (human, in vivo): 12 n
Motesanib-related nausea (human, in vivo): 18 n
Motesanib-related vomiting (human, in vivo): 13 n
Patients discontinuing treatment with the drug because of adverse events (human, in vivo): 9 n
Serious motesanib-related deep vein thrombosis (human, in vivo): 2 n
Serious motesanib-related diarrhea (human, in vivo): 2 n
Serious motesanib-related nausea (human, in vivo): 5 n
Serious motesanib-related pulmonary embolism (human, in vivo): 2 n
Serious motesanib-related tumor necrosis (human, in vivo): 2 n
Serious motesanib-related vomiting (human, in vivo): 5 n
Abnormal liver function test, grade 3 (motesanib-related) [1]: 0 n
Adverse events of grade 3, n (motesanib-related) [1]: 0 n
Adverse events of grade 4, n (Pulmonary) [1]: 1 n
Any adverse event, n (motesanib-related) [1]: 3 n
Cardiac toxicity (all grade 3) [1]: 0 n
Deep vein thrombosis, grade 3 (motesanib-related) [1]: 0 n
Diarrhea, grade 3 (motesanib-related) [1]: 0 n
Fatigue, grade 3 (motesanib-related) [1]: 0 n
Febrile neutropenia, grade 4 (motesanib-related) [1]: 1 n
Gallbladder toxicity [1]: 0 n
Gallbladder toxicity, Grade 3 [1]: 0 n
Hemorrhagic events [1]: 0 n
Hemorrhagic events, Grade 3 [1]: 0 n
Hypertension, highest (worst) grade: Grade 3 [1]: 0 n
Nausea, grade 3 (motesanib-related) [1]: 0 n
Neutropenia, grade 3 (motesanib-related) [1]: 0 n
Neutropenia, grade 4 (motesanib-related) [1]: 0 n
Pulmonary embolism, grade 4 (motesanib-related) [1]: 0 n
Thrombophlebitis (all grade 3) [1]: 0 n
Tumor necrosis, grade 3 (motesanib-related) [1]: 0 n
Vomiting, grade 3 (motesanib-related) [1]: 0 n
Abnormal liver function test, grade 3 (motesanib-related) [2]: 0 n
Adverse events of grade 3, n (motesanib-related) [2]: 3 n
Adverse events of grade 4, n (Pulmonary) [2]: 1 n
Any adverse event, n (motesanib-related) [2]: 7 n
Cardiac toxicity (all grade 3) [2]: 0 n
Deep vein thrombosis, grade 3 (motesanib-related) [2]: 0 n
Diarrhea, grade 3 (motesanib-related) [2]: 0 n
Fatigue, grade 3 (motesanib-related) [2]: 0 n
Febrile neutropenia, grade 4 (motesanib-related) [2]: 0 n
Gallbladder toxicity [2]: 0 n
Gallbladder toxicity, Grade 3 [2]: 0 n
Hemorrhagic events [2]: 0 n
Hemorrhagic events, Grade 3 [2]: 0 n
Hypertension, highest (worst) grade: Grade 3 [2]: 0 n
Nausea, grade 3 (motesanib-related) [2]: 1 n
Neutropenia, grade 3 (motesanib-related) [2]: 0 n
Neutropenia, grade 4 (motesanib-related) [2]: 1 n
Pulmonary embolism, grade 4 (motesanib-related) [2]: 0 n
Thrombophlebitis (all grade 3) [2]: 0 n
Tumor necrosis, grade 3 (motesanib-related) [2]: 1 n
Vomiting, grade 3 (motesanib-related) [2]: 0 n
Abnormal liver function test, grade 3 (motesanib-related) [3]: 0 n
Adverse events of grade 3, n (motesanib-related) [3]: 3 n
Adverse events of grade 4, n (Pulmonary) [3]: 0 n
Any adverse event, n (motesanib-related) [3]: 7 n
Cardiac toxicity (all grade 3) [3]: 0 n
Deep vein thrombosis, grade 3 (motesanib-related) [3]: 0 n
Diarrhea, grade 3 (motesanib-related) [3]: 2 n
Fatigue, grade 3 (motesanib-related) [3]: 0 n
Febrile neutropenia, grade 4 (motesanib-related) [3]: 0 n
Gallbladder toxicity, Grade 3 [3]: 0 n
Hemorrhagic events, Grade 3 [3]: 0 n
Hypertension, highest (worst) grade: Grade 3 [3]: 0 n
Nausea, grade 3 (motesanib-related) [3]: 0 n
Neutropenia, grade 3 (motesanib-related) [3]: 1 n
Neutropenia, grade 4 (motesanib-related) [3]: 0 n
Pulmonary embolism, grade 4 (motesanib-related) [3]: 0 n
Thrombophlebitis (all grade 3) [3]: 0 n
Tumor necrosis, grade 3 (motesanib-related) [3]: 1 n
Vomiting, grade 3 (motesanib-related) [3]: 0 n
Hemorrhagic events (motesanib 100 mg QD + erlotinib 150 mg QD, n = 7, epistaxis (grade 1)): 1^e n
Gallbladder toxicity (motesanib 100 mg QD + erlotinib 150 mg QD, n = 7, gallbladder enlargement (grade 2)): 1^c n
Abnormal liver function test, grade 3 (motesanib-related) [4]: 1 n
Adverse events of grade 3, n (motesanib-related) [4]: 3 n
Adverse events of grade 4, n (Pulmonary) [4]: 0 n
Any adverse event, n (motesanib-related) [4]: 8 n
Deep vein thrombosis, grade 3 (motesanib-related) [4]: 0 n
Diarrhea, grade 3 (motesanib-related) [4]: 1 n
Fatigue, grade 3 (motesanib-related) [4]: 1 n
Febrile neutropenia, grade 4 (motesanib-related) [4]: 0 n
Gallbladder toxicity [4]: 0 n
Gallbladder toxicity, Grade 3 [4]: 0 n
Hemorrhagic events [4]: 0 n
Hemorrhagic events, Grade 3 [4]: 0 n
Hypertension, highest (worst) grade: Grade 3 [4]: 0 n
Nausea, grade 3 (motesanib-related) [4]: 0 n
Neutropenia, grade 3 (motesanib-related) [4]: 1 n
Neutropenia, grade 4 (motesanib-related) [4]: 0 n
Pulmonary embolism, grade 4 (motesanib-related) [4]: 0 n
Thrombophlebitis (all grade 3) [4]: 0 n
Tumor necrosis, grade 3 (motesanib-related) [4]: 0 n
Vomiting, grade 3 (motesanib-related) [4]: 1 n
Cardiac toxicity (all grade 3) (motesanib 100 mg QD + gemcitabine + erlotinib 100 mg QD, n = 8, congestive heart failure and pulmonary edema): 1^f n
